The results in this text go back to US20080312301A1, “Substituted N-Benzo[D]Isoxazol-3-Yl-Amine Compounds as Inhibitors of Mglur5, Serotonin (5-Ht) and Noradrenaline Receptors, and Uses Thereof” (Gruenenthal GmbH, priority 2005, published 2008).

The inhibition is the change of the read-out against control, counted positive when it falls. A lower inhibition goes with little suppression.

Molecules are shown by their SMILES.

The test deals with T1, mGluR5 receptor (Sus scrofa, UniProt I3LUI7).
T1 construct: 450 μg of protein from brain homogenate are incubated with 5 nM^3[H]-MPEP; from tissue; host or cells: pig brain hemispheres without medulla, cerebellum and pons
T1 sequence (I3LUI7 19-1212): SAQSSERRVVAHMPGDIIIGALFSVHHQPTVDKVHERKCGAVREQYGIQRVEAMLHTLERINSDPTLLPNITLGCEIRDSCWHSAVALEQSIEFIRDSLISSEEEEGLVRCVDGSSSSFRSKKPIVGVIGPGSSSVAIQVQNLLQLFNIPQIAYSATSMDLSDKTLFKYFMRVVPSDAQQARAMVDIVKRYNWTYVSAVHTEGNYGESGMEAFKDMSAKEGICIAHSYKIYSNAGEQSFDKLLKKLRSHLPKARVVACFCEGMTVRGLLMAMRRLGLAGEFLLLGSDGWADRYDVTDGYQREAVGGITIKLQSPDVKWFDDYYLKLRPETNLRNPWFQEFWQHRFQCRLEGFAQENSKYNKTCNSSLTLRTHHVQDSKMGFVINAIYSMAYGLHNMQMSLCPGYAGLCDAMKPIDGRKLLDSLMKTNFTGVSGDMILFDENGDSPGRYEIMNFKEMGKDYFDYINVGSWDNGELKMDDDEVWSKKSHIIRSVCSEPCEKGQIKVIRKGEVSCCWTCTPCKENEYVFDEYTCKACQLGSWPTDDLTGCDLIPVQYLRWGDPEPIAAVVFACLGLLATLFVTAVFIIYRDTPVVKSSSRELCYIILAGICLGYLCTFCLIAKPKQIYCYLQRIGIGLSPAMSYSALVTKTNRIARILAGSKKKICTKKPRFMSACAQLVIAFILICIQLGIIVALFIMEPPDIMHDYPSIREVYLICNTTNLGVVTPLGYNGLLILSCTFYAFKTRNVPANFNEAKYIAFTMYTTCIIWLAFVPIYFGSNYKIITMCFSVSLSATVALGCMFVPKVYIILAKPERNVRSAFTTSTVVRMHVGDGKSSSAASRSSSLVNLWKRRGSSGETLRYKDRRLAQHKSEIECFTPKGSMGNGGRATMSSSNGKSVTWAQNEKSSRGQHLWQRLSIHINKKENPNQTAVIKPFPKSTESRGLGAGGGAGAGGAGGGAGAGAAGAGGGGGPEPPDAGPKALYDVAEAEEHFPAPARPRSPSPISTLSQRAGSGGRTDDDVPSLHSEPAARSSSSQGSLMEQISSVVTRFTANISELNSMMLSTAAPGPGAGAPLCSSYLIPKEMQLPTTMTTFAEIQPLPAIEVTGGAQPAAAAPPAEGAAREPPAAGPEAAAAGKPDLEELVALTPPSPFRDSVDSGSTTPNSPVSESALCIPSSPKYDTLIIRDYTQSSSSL
Description: Affinity for the mGluR5 receptor: displacement of 3[H]-MPEP binding in pig brain homogenate. To be noted: 10 μM compound, 5 nM 3[H]-MPEP. The procedure:
II. Method for Determining the Affinity for the mGluR5 Receptor
In each case 450 μg of protein from brain homogenate are incubated with 5 nM^3[H]-MPEP (Tocris, order No. R1212) (MPEP=2-methyl-6-[…]) and the compounds to be investigated (10 μM in the assay) in buffer (as above) in 250 μl incubation mixtures in 96-well microtiter plates at room temperature for 60 min.
The filter plates were then dried at 55° C. for 60 min.

In turn, `Cc1ccc(C(=O)Nc2noc3ccc(Br)cc23)cc1` [Example 138, N-(5-bromobenzo[d]isoxazol-3-yl)-4-methylbenzamide] showed an inhibition at 10 µM of 32%.
The same measure, in the same setting: as for `O=C(Nc1noc2ccccc12)c1ccc(C(F)(F)F)c(F)c1` [Example 88, N-benzo[d]isoxazol-3-yl-3-fluoro-4-trifluoromethylbenzamide], the figure is 30%; as for `COc1cccc2onc(NC(=O)c3ccccc3C(F)(F)F)c12` [Example 158, N-(4-methoxybenzo[d]isoxazol-3-yl)-2-trifluoromethylbenzamide], 36.1%.
Consider `O=C(Nc1noc2cc(Br)ccc12)c1cccs1` [Example 116, thiophene-2-(6-bromobenzo[d]isoxazol-3-yl)carboxamide], for which the “mGluR5 receptor inhibition of the 3[H]-MPEP binding in % (10 μM)” value (“mGluR5 receptor inhibition … in % (10 μM)” for short) is listed as 37.71%.
Turning to `COc1cccc2onc(NC(=O)c3ccccc3Cl)c12` [Example 157, 2-chloro-N-(4-methoxybenzo[d]isoxazol-3-yl)benzamide], the inhibition at 10 µM is 32.4%.
On the same count and under the same terms, as for `O=C(Nc1noc2c(F)cccc12)c1ccc(F)cc1` [Example 96, 4-fluoro-N-(7-fluorobenzo[d]isoxazol-3-yl)benzamide], the figure is 30.5%.
Consider `CC(C)(C)c1ccc(C(=O)Nc2noc3cc(Cl)ccc23)cc1` [Example 109, 4-tert-butyl-N-(6-chlorobenzo[d]isoxazol-3-yl)benzamide], for which the inhibition at 10 µM was determined as 35.2%.
In the case of `O=C(Nc1noc2cc(F)ccc12)c1cccc2ccccc12` [Example 101, naphthalene-1-(6-fluorobenzo[d]isoxazol-3-yl)carboxamide], the “mGluR5 receptor inhibition … in % (10 μM)” value is given as 48.99%.
As to `CCC(C)C(=O)Nc1noc2cccc(OC)c12` (stereo not drawn) [Example 160, N-(4-methoxybenzo[d]isoxazol-3-yl)-2-methylbutyramide], testing at 10 µM gave an inhibition of 54%.
Still for that read-out and setting: as for `Cc1ccc2onc(NC(=O)c3ccccc3C)c2c1` [Example 125, 2-methyl-N-(5-methylbenzo[d]isoxazol-3-yl)benzamide], the figure is 40.6%; as for `Cc1ccc2onc(NC(=O)c3cccnc3Cl)c2c1` [Example 128, 2-chloro-N-(5-methylbenzo[d]isoxazol-3-yl)nicotinamide], 33.1%.
Still for that read-out and setting: as for `CC(C)(C)c1ccc(C(=O)Nc2noc3c(F)cccc23)cc1` [Example 94, 4-tert-butyl-N-(7-fluorobenzo[d]isoxazol-3-yl)benzamide], the figure is 30.8%; as for `Nc1c(F)c(F)c2c(NC(=O)c3ccc(F)cc3F)noc2c1F` [Example 177, N-(6-amino-4,5,7-trifluorobenzo[d]isoxazol-3-yl)-2,4-difluorobenzamide], 30.8%; as for `Cc1ccc2onc(NC(=O)c3ccc(C(C)(C)C)cc3)c2c1` [Example 124, 4-tert-butyl-N-(5-methylbenzo[d]isoxazol-3-yl)benzamide], 43.5%.
The same measure, in the same setting: as for `CCC(C)C(=O)Nc1noc2cccc(OCC(F)(F)F)c12` (stereo not drawn) [Example 163, 2-methyl-N-[4-(2,2,2-trifluoroethoxy)benzo[d]isoxazol-3-yl]butyramide], the figure is 36%.
For the molecule `O=C(Nc1noc2cccc(Cl)c12)c1ccccc1` [Example 152, N-(4-chlorobenzo[d]isoxazol-3-yl)benzamide], 10 µM produced 31.6% inhibition.
Take `Cc1ccc2onc(NC(=O)c3ccc(C#N)cc3)c2c1` [Example 144, 4-cyano-N-(5-methylbenzo[d]isoxazol-3-yl)benzamide]: the inhibition at 10 µM worked out at 48.8%.
Still for that read-out and setting: then `COc1cccc(OC)c1C(=O)Nc1noc2ccc(Br)cc12` [Example 139, N-(5-bromobenzo[d]isoxazol-3-yl)-2,6-dimethoxybenzamide], with 41.5%; and `O=C(Nc1noc2c(F)cccc12)c1ccccc1` [Example 95, N-(7-fluorobenzo[d]isoxazol-3-yl)benzamide], with 45.8%; and `CCC(C)C(=O)Nc1noc2ccccc12` (stereo not drawn) [Example 86, N-benzo[d]isoxazol-3-yl-2-methylbutyramide], with 39.6%.
Consider `O=C(Nc1noc2ccccc12)c1c(F)cccc1F` [Example 87, N-benzo[d]isoxazol-3-yl-2,6-difluorobenzamide], for which the inhibition at 10 µM came out at 37%.
Turning to `Cc1cc(C(=O)Nc2noc3ccccc23)no1` [Example 91, 5-methylisoxazole-3-benzo[d]isoxazol-3-ylcarboxamide], the “mGluR5 receptor inhibition … in % (10 μM)” value is recorded as 35.00%.
Take `Cc1ccc2onc(NC(=O)c3ccccc3F)c2c1` [Example 122, 2-fluoro-N-(5-methylbenzo[d]isoxazol-3-yl)benzamide]: testing at 10 µM gave an inhibition of 41%.
The same measure, in the same setting: as for `O=C(Nc1noc2cccc(F)c12)c1ccc(Cl)cc1` [Example 148, 4-chloro-N-(4-fluorobenzo[d]isoxazol-3-yl)benzamide], the figure is 79.5%.
Same read-out and setting: then `CCCCC(CC)C(=O)Nc1noc2cc(Cl)ccc12` (stereo not drawn) [Example 112, N-(6-chlorobenzo[d]isoxazol-3-yl)-2-ethylhexanamide], with 35.1%; and `CCCCC(CC)C(=O)Nc1noc2ccccc12` (stereo not drawn) [Example 85, N-benzo[d]isoxazol-3-yl-2-ethylhexanamide], with 63.2%.
For `CCCc1ccc(C(=O)Nc2noc3ccc(F)cc23)cc1` [Example 107, N-(5-fluorobenzo[d]isoxazol-3-yl)-4-propylbenzamide], testing at 10 µM gave an inhibition of 42.1%.
On to `Cc1cc(C(=O)Nc2noc3ccc(Br)cc23)c(C)o1` [Example 134, 2,5-dimethylfuran-3-(5-bromobenzo[d]isoxazol-3-yl)carboxamide], for which the “mGluR5 receptor inhibition … in % (10 μM)” value is given as 43.11%.
Same read-out and setting: then `Cc1cccc(C(=O)Nc2noc3ccc(C)cc23)c1` [Example 143, 3-methyl-N-(5-methylbenzo[d]isoxazol-3-yl)benzamide], with 44.66%.
`CCC(C)C(=O)Nc1noc2cccc(Cl)c12` (stereo not drawn) [Example 154, N-(4-chlorobenzo[d]isoxazol-3-yl)-2-methylbutyramide]: the inhibition at 10 µM worked out at 30%.
Still for that read-out and setting: then `COc1ccc(C(=O)Nc2noc3ccc(Br)cc23)cc1OC` [Example 137, N-(5-bromobenzo[d]isoxazol-3-yl)-3,4-dimethoxybenzamide], with 31.2%; and `CC(C)(C)c1ccc(C(=O)Nc2noc3ccc(F)cc23)cc1` [Example 104, 4-tert-butyl-N-(5-fluorobenzo[d]isoxazol-3-yl)benzamide], with 44.6%.
With `O=C(Nc1noc2cccc(Cl)c12)C12CC3CC(CC(C3)C1)C2` [Example 151, adamantane-1-(4-chlorobenzo[d]isoxazol-3-yl)carboxamide], the “mGluR5 receptor inhibition … in % (10 μM)” value worked out at 74.05%.
On to `CN(C)c1cccc2onc(NC(=O)c3cccc([N+](=O)[O-])c3)c12` [Example 171, N-(4-dimethylaminobenzo[d]isoxazol-3-yl)-3-nitrobenzamide], for which the inhibition at 10 µM amounted to 42.3%.
The same measure, in the same setting: as for `Cc1ccc2onc(NC(=O)c3ccccc3)c2c1` [Example 118, N-(5-methylbenzo[d]isoxazol-3-yl)benzamide], the figure is 69%; as for `O=C(Nc1noc2cc(Br)ccc12)c1ccccc1Cl` [Example 114, N-(6-bromobenzo[d]isoxazol-3-yl)-2-chlorobenzamide], 37.5%.
In the case of `Cc1cccc(C(=O)Nc2noc3ccc(C)cc23)c1` [Example 123, 3-methyl-N-(5-methylbenzo[d]isoxazol-3-yl)benzamide], the “mGluR5 receptor inhibition … in % (10 μM)” value stood at 89.70%.
For `CCCC(C)C(=O)Nc1noc2ccc(C)cc12` (stereo not drawn) [Example 146, N-(5-methylbenzo[d]isoxazol-3-yl)-2-methylpentanamide], 10 µM produced 34% inhibition.
Consider `O=C(Nc1noc2ccccc12)c1cccnc1` [Example 90, N-benzo[d]isoxazol-3-ylnicotinamide], for which the inhibition at 10 µM is 50.3%.
The same measure, in the same setting: as for `COc1cccc(C(=O)Nc2noc3ccc(Br)cc23)c1` [Example 142, N-(5-bromobenzo[d]isoxazol-3-yl)-3-methoxybenzamide], the figure is 37.8%.
Same read-out and setting: then `O=C(Nc1noc2ccccc12)c1c(F)ccc(F)c1F` [Example 89, N-benzo[d]isoxazol-3-yl-2,3,6-trifluorobenzamide], with 51.1%; and `O=C(Nc1noc2cc(Cl)ccc12)c1ccccc1Cl` [Example 108, 2-chloro-N-(6-chlorobenzo[d]isoxazol-3-yl)benzamide], with 34.7%.
The same measure, in the same setting: then `Cc1ccc2onc(NC(=O)c3ccc(Br)cc3)c2c1` [Example 119, 4-bromo-N-(5-methylbenzo[d]isoxazol-3-yl)benzamide], with 37.9%; and `CN(C)c1cccc2onc(NC(=O)c3cc(F)cc(C(F)(F)F)c3)c12` [Example 169, N-(4-dimethylaminobenzo[d]isoxazol-3-yl)-3-fluoro-5-trifluoromethylbenzamide], with 36.8%.
Take `CN(C)c1cccc2onc(NC(=O)c3cc4ccccc4s3)c12` [Example 173, benzo[b]thiophene-2-(4-dimethylaminobenzo[d]isoxazol-3-yl)carboxamide]: the “mGluR5 receptor inhibition … in % (10 μM)” value is listed as 43.55%.
The molecule `CCC(C(=O)Nc1noc2ccc(C)cc12)c1ccccc1` (stereo not drawn) [Example 145, N-(5-methylbenzo[d]isoxazol-3-yl)-2-phenylbutyramide] yielded an inhibition at 10 µM of 43.5%.
Turning to `O=C(Nc1noc2ccc(F)cc12)c1ccccc1Br` [Example 103, 2-bromo-N-(5-fluorobenzo[d]isoxazol-3-yl)benzamide], at 10 µM the inhibition was 41.2%.
`CC(C)(C)CC(=O)Nc1noc2ccc(F)cc12` [Example 130, N-(5-fluorobenzo[d]isoxazol-3-yl)-3,3-dimethyl butyramide]: the “mGluR5 receptor inhibition … in % (10 μM)” value came to 31.64%.
